Results reported in patent US11471390B2, “Pseudoceramide compound and use thereof” (DAEBONG LS, LTD, priority 2017, dated 2022).

Test system: Raw264.7 macrophage cells
Assay: Cell viability of Raw264.7 macrophage cells by MTT assay (cytotoxicity)
Assay type: cell-based
Details: Raw264.7, MTT
Protocol: The cell viabilities of Raw264.7 macrophage cells were assessed by MTT assay to evaluate the cytotoxicities of the pseudoceramide compounds. When the cell viability was ≥80% by MTT assay, the pseudoceramide compound was judged to be not cytotoxic. The cell viabilities of the pseudoceramide compounds were […] at concentrations of 1-50 μg/mL, indicating no toxicity to Raw264.7 macrophage (Table 1). Another experiment for anti-inflammatory effects of the pseudoceramide compounds was conducted at concentrations of 1-50 μg/mL.

Row | SMILES | Cell viability (%) (10 μM) | Cell viability (%) (concentration 5.0 (μg/mL)) | Cell viability (%) (concentration 10.0 (μg/mL)) | Cell viability (%) (concentration 25.0 (μg/mL)) | Cell viability (%) (concentration 50.0 (μg/mL))
1 | Cc1ccnc(N)c1 [2-Amino-4-methylpyridine, reference compound] | 103.13% |  |  |  | 
2 | CCCCCCCC/C=C\CCCCCCCC(=O)NC(CO)CO [Example 1, N-(1,3-dihydroxypropan-2-yl)oleamide] |  | 100.99% | 102.08% | 102.14% | 102.22%
3 | CCCCC/C=C\C/C=C\CCCCCCCC(=O)NC(CO)CO [Example 2, (9Z,12Z)—N-(1,3-dihydroxypropan-2-yl)octadeca-9,12-dienamide] |  | 100.35% | 100.24% | 100.09% | 93.80%
4 | CC/C=C\C/C=C\C/C=C\CCCCCCCC(=O)NC(CO)CO [Example 3, (9Z,12Z,15Z)—N-(1,3-dihydroxypropan-2-yl)octadeca-9,12,15-trienamide] |  | 95.72% | 101.01% | 96.58% | 96.64%
